Measured values taken from article PMC10518257 (Nature Cancer, 2023).
Where “and” joins values, the source holds several entries; their conditions need not be identical. Identical values can stand only once.

Tests used:
LUAD-0087AS2 PDX = assay: PDX efficacy study; conditions: for Tumor volume: LUAD-0087AS2, selpercatinib group 30 mg/kg BID, individual animals
[1] = tested on: Ba/F3 KIF5B–RET^WT allograft tumors; assay: Subcutaneous allograft efficacy study; format: in vivo, BALB/c nude mice; conditions: Ba/F3-KIF5B::RET, Ext. Data Fig. 9a
[2] = tested on: phosphorylation of RET^G810R, RET^G810S and RET^G810C in Ba/F3 cells; assay: Western blotting of RET phosphorylation in Ba/F3 KIF5B–RET cells; format: cell-based; conditions: 1 h, western blot
[3] = tested on: Ba/F3 cells expressing KIF5B–RET^V804L; assay: Growth inhibition assay in Ba/F3 cells (CellTiter-Glo, 72 h); format: cell-based; conditions: replicate sets
[4] = Animal weight of tumor-bearing mice; conditions: for Animal Weight (g), Mean: Ba/F3-KIF5B::RET tumor-bearing mice (Ext. Data Fig 8h); for Animal Weight: LUAD-0077AS1 PDX, individual animals

Q: Which “Area Under Curve Mean” value (LUAD-0087AS2 PDX; Fig. 6a LUAD-0087AS2 tumor growth, selpercatinib 30 mg/kg BID) does the source give for `COc1ccc(CN2C3CC2CN(c2ccc(-c4cc(OCC(C)(C)O)cn5ncc(C#N)c45)cn2)C3)cn1` [Selpercatinib] here?
A: -1216

Q: And the Tumor volume (LUAD-0087AS2 PDX; treatment day 0)?
A: 118.47 (2×) and 116.65 and 114.49 (2×)

Q: What about the Tumor volume (LUAD-0087AS2 PDX; treatment day 3) of the same compound?
A: 107.17 (3×) and 103.77 and 112.73

Q: What about the Tumor volume (LUAD-0087AS2 PDX; treatment day 7) of the same compound?
A: 99.78 and 112.28 and 107.17 (2×) and 110.58

Q: What about the Tumor volume (LUAD-0087AS2 PDX; treatment day 10) of the same compound?
A: 95.03 (4×) and 96.62

Q: What about the Tumor volume (LUAD-0087AS2 PDX; treatment day 14) of the same compound?
A: 91.61 and 88.25 and 95.03 and 86.78 and 91.87

Q: What about the Tumor volume (LUAD-0087AS2 PDX; treatment day 17) of the same compound?
A: 103.77 and 88.25 and 107.17 and 96.62 and 91.87

Q: What about the Tumor volume (LUAD-0087AS2 PDX; treatment day 21) of the same compound?
A: 103.77 and 83.83 and 96.62 (2×) and 91.87

Q: And the Tumor volume (LUAD-0087AS2 PDX; treatment day 24)?
A: 72.18 (2×) and 83.97 and 80.89 and 74.9

Q: What about the Tumor volume (LUAD-0087AS2 PDX; treatment day 29) of the same compound?
A: 80.89 (2×) and 72.18 and 85.5 and 74.9

Q: And the Tumor volume (LUAD-0087AS2 PDX; treatment day 32)?
A: 80.89 (3×) and 75.04 and 70.69

Q: And the Tumor volume (LUAD-0087AS2 PDX; treatment day 35)?
A: 82.36 and 75.04 and 88.7 and 80.89 and 70.69

Q: What about the Tumor volume (LUAD-0087AS2 PDX; treatment day 38) of the same compound?
A: 79.29 and 75.04 and 88.7 and 80.89 and 70.69

Q: What about the Tumor volume (LUAD-0087AS2 PDX; treatment day 42) of the same compound?
A: 79.29 and 75.04 and 98.67 and 80.89 and 77.87

Q: And the Tumor volume (LUAD-0087AS2 PDX; treatment day 45)?
A: 79.29 and 72.18 and 98.67 and 68.07 and 73.54

Q: What about the “Tumor Volume Mean” value ([1]; 3 mg/kg BID, Day 1) of the same compound?
A: 153.36 mm3

Q: What about the “Tumor Volume Mean” value ([1]; 3 mg/kg BID, Day 4) of the same compound?
A: 200.42 mm3

Q: What about the “Tumor Volume Mean” value ([1]; 3 mg/kg BID, Day 8) of the same compound?
A: 331.73 mm3

Q: And the “Tumor Volume Mean” value ([1]; 3 mg/kg BID, Day 11)?
A: 595.39 mm3

Q: And the “Tumor Volume Mean” value ([1]; 3 mg/kg BID, Day 15)?
A: 703.72 mm3

Q: And the “Tumor Volume Mean” value ([1]; 10 mg/kg BID, Day 1)?
A: 152.35 mm3

Q: What about the “Tumor Volume Mean” value ([1]; 10 mg/kg BID, Day 4) of the same compound?
A: 168.16 mm3

Q: What about the “Tumor Volume Mean” value ([1]; 10 mg/kg BID, Day 8) of the same compound?
A: 206.58 mm3

Q: And the “Tumor Volume Mean” value ([1]; 10 mg/kg BID, Day 11)?
A: 318.64 mm3

Q: And the “Tumor Volume Mean” value ([1]; 10 mg/kg BID, Day 15)?
A: 406.01 mm3

Q: What about the “Tumor Volume Mean” value ([1]; 30 mg/kg BID, Day 1) of the same compound?
A: 155.70 mm3

Q: And the “Tumor Volume Mean” value ([1]; 30 mg/kg BID, Day 4)?
A: 126.28 mm3

Q: What about the “Tumor Volume Mean” value ([1]; 30 mg/kg BID, Day 8) of the same compound?
A: 138.87 mm3

Q: What about the “Tumor Volume Mean” value ([1]; 30 mg/kg BID, Day 11) of the same compound?
A: 107.82 mm3

Q: And the “Tumor Volume Mean” value ([1]; 30 mg/kg BID, Day 15)?
A: 112.41 mm3

Q: And the “Tumor Volume Mean” value ([1]; 100 mg/kg BID, Day 1)?
A: 157.17 mm3

Q: And the “Tumor Volume Mean” value ([1]; 100 mg/kg BID, Day 4)?
A: 107.92 mm3

Q: What about the “Tumor Volume Mean” value ([1]; 100 mg/kg BID, Day 8) of the same compound?
A: 75.50 mm3

Q: And the “block of phosphorylation of RET^G810R, RET^G810S or RET^G810C” value [2]?
A: did not block

Q: And the GI50 ([3]; Ba/3-KIF5B-RET-V804L)?
A: 8.67 nM and 7.06 nM

Q: And the GI50 ([3]; Mus musculus, BaF3, Ba/3-KIF5B-RET-V804L)?
A: 5.67 nM

Q: What about the “Animal Weight, Mean” value ([4]; Ba/F3-KIF5B::RET G810R (Fig 8f), Selpercatinib 10 mg/kg BID, day 1) of the same compound?
A: 27.18 g

Q: What about the “Animal Weight, Mean” value ([4]; Ba/F3-KIF5B::RET G810R (Fig 8f), Selpercatinib 10 mg/kg BID, day 4) of the same compound?
A: 26.90 g

Q: And the “Animal Weight, Mean” value ([4]; Ba/F3-KIF5B::RET G810R (Fig 8f), Selpercatinib 10 mg/kg BID, day 8)?
A: 26.00 g

Q: What about the “Animal Weight, Mean” value ([4]; Ba/F3-KIF5B::RET G810R (Fig 8f), Selpercatinib 10 mg/kg BID, day 11) of the same compound?
A: 26.60 g

Q: And the “Animal Weight, Mean” value ([4]; Ba/F3-KIF5B::RET G810R (Fig 8f), Selpercatinib 10 mg/kg BID, day 15)?
A: 26.48 g

Q: What about the “Animal Weight, Mean” value ([4]; Ba/F3-KIF5B::RET G810R (Fig 8g), Selpercatinib 30 mg/kg BID, day 1) of the same compound?
A: 25.8 g

Q: What about the “Animal Weight, Mean” value ([4]; Ba/F3-KIF5B::RET G810R (Fig 8g), Selpercatinib 30 mg/kg BID, day 4) of the same compound?
A: 26.9 g

Q: What about the “Animal Weight, Mean” value ([4]; Ba/F3-KIF5B::RET G810R (Fig 8g), Selpercatinib 30 mg/kg BID, day 8) of the same compound?
A: 27.0 g

Q: And the “Animal Weight, Mean” value ([4]; Ba/F3-KIF5B::RET G810R (Fig 8g), Selpercatinib 30 mg/kg BID, day 11)?
A: 26.8 g

Q: What about the “Animal Weight, Mean” value ([4]; Ba/F3-KIF5B::RET G810R (Fig 8g), Selpercatinib 30 mg/kg BID, day 15) of the same compound?
A: 26.8 g

Q: And the “Animal Weight (g), Mean” value ([4]; 3 mg/kg BID, day 1)?
A: 28.0 g

Q: And the “Animal Weight (g), Mean” value ([4]; 3 mg/kg BID, day 4)?
A: 28.1 g

Q: And the “Animal Weight (g), Mean” value ([4]; 3 mg/kg BID, day 8)?
A: 28.6 g

Q: And the “Animal Weight (g), Mean” value ([4]; 3 mg/kg BID, day 11)?
A: 28.6 g

Q: What about the “Animal Weight (g), Mean” value ([4]; 3 mg/kg BID, day 15) of the same compound?
A: 28.4 g

Q: What about the “Animal Weight (g), Mean” value ([4]; 10 mg/kg BID, day 1) of the same compound?
A: 27.7 g

Q: And the “Animal Weight (g), Mean” value ([4]; 10 mg/kg BID, day 4)?
A: 27.7 g

Q: And the “Animal Weight (g), Mean” value ([4]; 10 mg/kg BID, day 8)?
A: 28.2 g

Q: And the “Animal Weight (g), Mean” value ([4]; 10 mg/kg BID, day 11)?
A: 28.7 g

Q: And the “Animal Weight (g), Mean” value ([4]; 10 mg/kg BID, day 15)?
A: 28.6 g

Q: What about the “Animal Weight (g), Mean” value ([4]; 30 mg/kg BID, day 1) of the same compound?
A: 28.1 g

Q: What about the “Animal Weight (g), Mean” value ([4]; 30 mg/kg BID, day 4) of the same compound?
A: 27.9 g

Q: And the “Animal Weight (g), Mean” value ([4]; 30 mg/kg BID, day 8)?
A: 29.0 g

Q: And the “Animal Weight (g), Mean” value ([4]; 30 mg/kg BID, day 11)?
A: 29.6 g

Q: What about the “Animal Weight (g), Mean” value ([4]; 30 mg/kg BID, day 15) of the same compound?
A: 29.2 g

Q: And the “Animal Weight (g), Mean” value ([4]; 100 mg/kg BID, day 1)?
A: 26.8 g

Q: What about the “Animal Weight (g), Mean” value ([4]; 100 mg/kg BID, day 4) of the same compound?
A: 26.1 g

Q: What about the “Animal Weight (g), Mean” value ([4]; 100 mg/kg BID, day 8) of the same compound?
A: 23.3 g

Q: And the “Animal Weight” value ([4]; Selpercatinib 10 mg/kg BID, treatment day 0)?
A: 24 g and 25 g and 21 g and 23 g (2×)

Q: And the “Animal Weight” value ([4]; Selpercatinib 10 mg/kg BID, treatment day 4)?
A: 24 g (3×) and 21 g and 23 g
